Experimental data as given in the NIST ThermoML archive (doi:10.1016/j.jct.2016.09.030).

Assay: xn = mol fraction of the nth substance listed
Conditions: 100 kPa, Liquid; for viscosity: Concentric cylinders viscometry; for mass density: Vibrating tube method

CCOC(=O)CCC(=O)OCC [diethyl butanedioate] + CC(C)CO
Conditions	mass density [kg/m3]	viscosity [mPa·s]
288.15 K, x1 = 0.0999	844.65	3.284
288.15 K, x1 = 0.2	878.53	2.763
288.15 K, x1 = 0.3001	908.28	2.542
288.15 K, x1 = 0.4	934.67	2.473
288.15 K, x1 = 0.4999	958.02	2.477
288.15 K, x1 = 0.5999	978.97	2.546
288.15 K, x1 = 0.6999	997.81	2.625
288.15 K, x1 = 0.8	1014.88	2.774
288.15 K, x1 = 0.9	1030.48	2.962
288.15 K, x1 = 1	1044.83	3.195
293.15 K, x1 = 0.0999	840.5	2.816
293.15 K, x1 = 0.2	874.13	2.403
293.15 K, x1 = 0.3001	903.71	2.23
293.15 K, x1 = 0.4	929.94	2.177
293.15 K, x1 = 0.4999	953.16	2.186
293.15 K, x1 = 0.5999	974.02	2.249
293.15 K, x1 = 0.6999	992.78	2.32
293.15 K, x1 = 0.8	1009.79	2.45
293.15 K, x1 = 0.9	1025.33	2.611
293.15 K, x1 = 1	1039.63	2.807
298.15 K, x1 = 0.0999	836.33	2.443
298.15 K, x1 = 0.2	869.73	2.108
298.15 K, x1 = 0.3001	899.12	1.973
298.15 K, x1 = 0.4	925.2	1.931
298.15 K, x1 = 0.4999	948.31	1.947
298.15 K, x1 = 0.5999	969.07	2.004
298.15 K, x1 = 0.6999	987.75	2.073
298.15 K, x1 = 0.8	1004.7	2.184
298.15 K, x1 = 0.9	1020.18	2.322
298.15 K, x1 = 1	1034.44	2.491
303.15 K, x1 = 0.0999	832.13	2.135
303.15 K, x1 = 0.2	865.31	1.866
303.15 K, x1 = 0.3001	894.51	1.756
303.15 K, x1 = 0.4	920.45	1.73
303.15 K, x1 = 0.4999	943.44	1.747
303.15 K, x1 = 0.5999	964.11	1.802
303.15 K, x1 = 0.6999	982.72	1.864
303.15 K, x1 = 0.8	999.6	1.964
303.15 K, x1 = 0.9	1015.04	2.084
303.15 K, x1 = 1	1029.25	2.229
308.15 K, x1 = 0.0999	827.9	1.875
308.15 K, x1 = 0.2	860.85	1.659
308.15 K, x1 = 0.3001	889.88	1.574
308.15 K, x1 = 0.4	915.68	1.557
308.15 K, x1 = 0.4999	938.56	1.576
308.15 K, x1 = 0.5999	959.14	1.629
308.15 K, x1 = 0.6999	977.68	1.686
308.15 K, x1 = 0.8	994.51	1.775
308.15 K, x1 = 0.9	1009.9	1.882
308.15 K, x1 = 1	1024.08	2.008
313.15 K, x1 = 0.0999	823.63	1.657
313.15 K, x1 = 0.2	856.36	1.484
313.15 K, x1 = 0.3001	885.22	1.418
313.15 K, x1 = 0.4	910.89	1.409
313.15 K, x1 = 0.4999	933.67	1.43
313.15 K, x1 = 0.5999	954.16	1.48
313.15 K, x1 = 0.6999	972.64	1.534
313.15 K, x1 = 0.8	989.42	1.614
313.15 K, x1 = 0.9	1004.76	1.71
313.15 K, x1 = 1	1018.9	1.821
318.15 K, x1 = 0.0999	819.31	1.471
318.15 K, x1 = 0.2	851.84	1.334
318.15 K, x1 = 0.3001	880.53	1.283
318.15 K, x1 = 0.4	906.08	1.281
318.15 K, x1 = 0.4999	928.76	1.304
318.15 K, x1 = 0.5999	949.18	1.352
318.15 K, x1 = 0.6999	967.59	1.403
318.15 K, x1 = 0.8	984.32	1.476
318.15 K, x1 = 0.9	999.62	1.562
318.15 K, x1 = 1	1013.72	1.66
323.15 K, x1 = 0.0999	814.95	1.324
323.15 K, x1 = 0.2	847.28	1.218
323.15 K, x1 = 0.3001	875.82	1.175
323.15 K, x1 = 0.4	901.24	1.18
323.15 K, x1 = 0.4999	923.83	1.201
323.15 K, x1 = 0.5999	944.18	1.249
323.15 K, x1 = 0.6999	962.54	1.3
323.15 K, x1 = 0.8	979.22	1.366
323.15 K, x1 = 0.9	994.48	1.438
323.15 K, x1 = 1	1008.55	1.523
